23 compounds from US11447477B2, “Indoleamine-2,3-dioxygenase inhibitor, the preparative method and the use thereof” (HINOVA PHARMACEUTICALS INC., priority 2017, dated 2022) can be followed below.

human IDO1 protease, sequence (P14902 whole entry): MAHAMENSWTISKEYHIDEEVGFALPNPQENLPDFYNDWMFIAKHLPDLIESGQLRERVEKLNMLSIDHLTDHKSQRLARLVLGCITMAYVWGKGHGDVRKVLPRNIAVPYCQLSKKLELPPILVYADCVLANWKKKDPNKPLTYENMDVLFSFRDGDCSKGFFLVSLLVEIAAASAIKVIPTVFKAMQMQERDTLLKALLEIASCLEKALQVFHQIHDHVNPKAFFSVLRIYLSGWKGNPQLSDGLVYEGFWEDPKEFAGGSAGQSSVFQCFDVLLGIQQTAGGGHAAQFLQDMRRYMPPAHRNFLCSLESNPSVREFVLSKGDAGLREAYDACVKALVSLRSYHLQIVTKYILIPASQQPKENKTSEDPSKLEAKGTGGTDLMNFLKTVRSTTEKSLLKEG

The experiment concerns the target human IDO1 protease (Homo sapiens (Human), UniProt P14902). The experiment in a line: Inhibitory activity against human IDO1 protease (absorbance test method). Type of experiment: biochemical. The settings on record: IDO1 (His-tag) enzyme, absorbance at 320 nm. As for the experimental part: 1) Experimental Materials and Apparatus: • IDO1 (His-tag) enzyme (BPS Bioscience) • L-tryptophan (Sigma) • Methylene blue (Sigma) • Catalase originated from the liver of cattle (Sigma) • L-ascorbic acid (Sigma) • Glycerol (Sigma) • Potassium dihydrogen phosphate solution (Sigma) • Tween 20 (Sigma) • Automatic sampling platform Liquid handler (Bravo & Echo) • Microplate Reader SpectraMax M5e (Molecular Devices)
2) Test Method of Compounds: The Compounds are Determined by Absorbance Test Method:
The tested compounds and the reference compounds are dissolved in DMSO to prepare a high concentration of storage solution. The stock solution of reference compound was diluted with DMSO to prepare a 100× solution. In the first column of the working plate, 8 μL above tested compounds and 8 μL 100× reference compound were respectively added as the highest concentration, and then the highest concentrations were subjected to three times dilution to obtain 11 concentrations and prepare 100× solution. 0.5 μL solution was transferred from the above plate to the detection plate. […]. For HPE and ZPE control wells, 0.5 μL 100% DMSO was added.
25 μL 2×IDO1 (His-tag) enzyme solution (containing L-ascorbic acid, methylene blue, and catalase) was added to each well. 25 μL reaction solution without IDO1 (His-tag) enzyme was added into HPE control well. The test plate was centrifugated at 1000 rpm for 1 minute to mix well. Then, the test plate was incubated at room temperature for 30 minutes. 25 μL above 2× substrate (L-tryptophan) solution was added to each well. The test plate was centrifugated at 1000 rpm for 1 minute to mix well. The detection plate was placed on ELISA (SpectraMax M5e), the temperature was set at 25° C., and the absorbance (OD value) was measured at 320 nm every 10 minutes till 60 minutes.
Calculating the increase ratio of absorbance: the slope of the absorbance increase curve from 10 min to 60 min is derived from SpectralMax M5e. The inhibition coefficient of compound was calculated: the inhibition ratio of compound=(the absorbance increase ratio of ZPE control well−the absorbance increase ratio of compound well)/(the absorbance increase ratio of ZPE control well−the absorbance increase ratio of HPE control well)×100. Results was analyzed by Prism 5.0.
The IC50 is the concentration needed to halve the response being measured. A lower IC50 goes with inhibition by little substance. As to `O/N=C(\Nc1ccc(F)c(Br)c1)c1nonc1NCC1CNC1` [Compound 2, 4-((Azetidin-3-ylmethyl)amino)-N-(3-bromo-4-fluorophenyl)-N′-hydroxyl-1,2,5-oxadiazole-3-formamidine], 182 nM corresponded to half-maximal inhibition (IC50).
For `CC(C)(C)OC(=O)N1CC(CNc2nonc2/C(=N/O)Nc2ccc(F)c(Br)c2)C1` [Compound 3, t-Butyl 3-(((4-(N-(3-bromo-4-fluorophenyl)-N′-hydroxylformamidinyl)-1,2,5-oxadiazole-3-yl)amino)methyl)azetidin-1-formate] the value was 430 nM.
Under `CC(C)(C)OC(=O)N1CCC(CNc2nonc2/C(=N/O)Nc2ccc(F)c(Br)c2)C1` (centres unmarked) [Compound 5] stands 276 nM; under `O/N=C(\Nc1ccc(F)c(Br)c1)c1nonc1NCC1CCNC1` (centres unmarked) [Compound 6, N-(3-Bromo-4-fluorophenyl)-N′-hydroxyl-4-((azacyclopentan-3-ylmethyl)amino)-1,2,5-oxadiazole-3-formamidine], 88 nM.
Under `NS(=O)(=O)N1CCC(CNc2nonc2/C(=N/O)Nc2ccc(F)c(Br)c2)C1` (centres unmarked) [Compound 7, N-(3-bromo-4-fluorophenyl)-N′-hydroxyl-4-(((1-sulfamoylpyrrolidin-3-yl)methyl)amino)-1,2,5-oxadiazole-3-formamidine] stands 59 nM.
The compound `NS(=O)(=O)N1CCCC(CNc2nonc2/C(=N/O)Nc2ccc(F)c(Br)c2)C1` (centres unmarked) [Compound 10, N-(3-bromo-4-fluorophenyl)-N′-hydroxyl-4-(((1-sulfamoylpiperidin-3-yl)methyl)amino)-1,2,5-oxadiazole-3-formamidine] yielded an IC50 of 254 nM.
Turning to `NS(=O)(=O)N1CCOC(CNc2nonc2/C(=N/O)Nc2ccc(F)c(Br)c2)C1` (centres unmarked) [Compound 11, N-(3-bromo-4-fluorophenyl)-N′-hydroxyl-4-(((4-sulfamoylmorpholin-2-yl)methyl)amino)-1,2,5-oxadiazole-3-formamidine], it took 206 nM to reach half-maximal inhibition (IC50).
Under `NS(=O)(=O)N1CCC1CNc1nonc1/C(=N/O)Nc1ccc(F)c(Br)c1` (centres unmarked) [Compound 12, N-(3-Bromo-4-fluorophenyl)-N′-hydroxyl-4-(((1-sulfamoylazetidine-2-yl)methyl)amino)-1,2,5-oxadiazole-3-formamidine] stands 133 nM; under `NS(=O)(=O)N1CCCC1CNc1nonc1/C(=N/O)Nc1ccc(F)c(Br)c1` (centres unmarked) [Compound 13, N-(3-Bromo-4-fluorophenyl)-N′-hydroxyl-4-(((1-sulfamoylazacyclopentan-2-yl)methyl)amino)-1,2,5-oxadiazole-3-formamidine], 214 nM.
Under `NS(=O)(=O)N1CCCCC1CNc1nonc1/C(=N/O)Nc1ccc(F)c(Br)c1` (centres unmarked) [Compound 14, N-(3-bromo-4-fluorophenyl)-N′-hydroxyl-4-(((1-sulfamoylazacyclohexane-2-yl)methyl)amino)-1,2,5-oxadiazole-3-formamidine] stands 279 nM; under `NS(=O)(=O)N1CCCC1CCNc1nonc1/C(=N/O)Nc1ccc(F)c(Br)c1` (centres unmarked) [Compound 16, N-(3-bromo-4-fluorophenyl)-N′-hydroxyl-4-((2-(1-sulfamoylazacyclopentan-2-yl)ethyl)amino)-1,2,5-oxadiazole-3-formamidine], 151 nM; under `NS(=O)(=O)N1CCC(CNc2nonc2/C(=N/O)Nc2ccc(F)c(Br)c2)CC1` [Compound 18, N-(3-bromo-4-fluorophenyl)-N′-hydroxyl-4-(((1-sulfamoylazacyclohexane-4-yl)methyl)amino)-1,2,5-oxadiazole-3-formamidine], 114 nM.
For `NS(=O)(=O)N1CCC(CCNc2nonc2/C(=N/O)Nc2ccc(F)c(Br)c2)CC1` [Compound 19, N-(3-bromo-4-fluorophenyl)-N′-hydroxyl-4-((2-(1-sulfamoylazacyclohexane-4-yl)ethyl)amino)-1,2,5-oxadiazole-3-formamidine] the value was 119 nM.
The compound `CS(=O)(=O)N1CCC(CNc2nonc2/C(=N/O)Nc2ccc(F)c(Br)c2)C1` (centres unmarked) [Compound 20, N-(3-bromo-4-fluorophenyl)-N′-hydroxyl-4-(((1-methylsulfonylazacyclopentan-3-yl)methyl)amino)-1,2,5-oxadiazole-3-formamidine] displayed an IC50 of 79 nM.
Consider `O=S(=O)(C1CC1)N1CCC(CNc2nonc2/C(=N/O)Nc2ccc(F)c(Br)c2)C1` (centres unmarked) [Compound 21, N-(3-bromo-4-fluorophenyl)-N′-hydroxyl-4-(((1-cyclopropylsulfonylazacyclopentan-3-yl)methyl)amino)-1,2,5-oxadiazole-3-formamidine], for which the IC50 stood at 141 nM.
Under `CN(C)S(=O)(=O)N1CCC(CNc2nonc2/C(=N/O)Nc2ccc(F)c(Br)c2)C1` (centres unmarked) [Compound 23, (Z)—N-(3-bromo-4-fluorophenyl)-4-(((1-(N,N-methylsulfonyl)pyrrolidinyl-3-yl)methyl)amino)-N′-hydroxyl-1,2,5-oxadiazol-3-carboxyoximide] stands 183 nM.
`NS(=O)(=O)N1CCC(COc2nonc2/C(=N/O)Nc2ccc(F)c(Br)c2)C1` (centres unmarked) [Compound 27, (Z)—N-(3-Bromo-4-fluorophenyl)-N′-hydroxyl-4-((1-sulfamoylpyrrolidin-3-yl)methoxyl)-1,2,5-oxadiazol-3-formamidine] returned an IC50 of 628 nM.
For `CN(C)S(=O)(=O)N1CC(CNc2nonc2C(=NO)Nc2ccc(F)c(Br)c2)C1` [Compound 81] the value was 142 nM; for `CS(=O)(=O)N1CC(CNc2nonc2C(=NO)Nc2ccc(F)c(Br)c2)C1` [Compound 85], 115 nM.
Under `O=S(=O)(C1CC1)N1CC(CNc2nonc2/C(=N/O)Nc2ccc(F)c(Br)c2)C1` [Compound 86, (Z)—N-(3-Bromo-4-fluorophenyl)-4-(((1-(cyclopropylsulfonyl)azido-3-yl)methyl)amino)-N′-hydroxyl-1,2,5-oxadiazol-3-carboxyoximide] stands 167 nM.
For `CN(C)C(=O)C(=O)N1CC(CNc2nonc2C(=NO)Nc2ccc(F)c(Br)c2)C1` [Compound 89] the value was 183 nM; for `NS(=O)(=O)N1CC(O)(CNc2nonc2C(=NO)Nc2ccc(F)c(Br)c2)C1` [Compound 92], 64 nM; for `NS(=O)(=O)N1CCC(O)(CNc2nonc2C(=NO)Nc2ccc(F)c(Br)c2)C1` (centres unmarked) [Compound 151], 101 nM.
